Measurements published in ChEMBL document CHEMBL1135247, “Benzimidazoles and isosteric compounds as potent and selective factor Xa inhibitors” (Bioorg Med Chem Lett, 2002).

Assays:
Coagulation factor X [1] = molecular target: T1, Coagulation factor X (Homo sapiens, UniProt P00742); experiment: Inhibition of Coagulation factor Xa
Coagulation factor X [2] = molecular target: T1, Coagulation factor X; experiment: Tested for inhibitory against Coagulation factor Xa at a concentration of 3.9 uM
[3] = molecular target: Vitamin K-dependent protein C (Homo sapiens, UniProt P04070); experiment: Tested for inhibitory activity against Activated protein C
Chain of Vitamin K-dependent protein C (P04070 43-197 limits assumed): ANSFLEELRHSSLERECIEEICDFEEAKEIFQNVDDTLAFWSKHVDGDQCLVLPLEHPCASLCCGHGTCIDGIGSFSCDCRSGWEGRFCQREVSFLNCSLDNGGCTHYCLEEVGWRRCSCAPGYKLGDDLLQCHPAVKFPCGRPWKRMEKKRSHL
Chain of Vitamin K-dependent protein C (P04070 212-461 limits assumed): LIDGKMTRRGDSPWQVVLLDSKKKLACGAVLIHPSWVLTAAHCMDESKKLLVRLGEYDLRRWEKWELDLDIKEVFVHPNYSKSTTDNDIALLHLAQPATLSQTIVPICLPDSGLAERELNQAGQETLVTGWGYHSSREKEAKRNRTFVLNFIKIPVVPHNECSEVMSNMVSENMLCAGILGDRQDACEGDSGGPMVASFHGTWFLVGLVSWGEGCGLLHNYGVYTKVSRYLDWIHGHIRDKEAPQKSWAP

Coagulation factor X [4] = molecular target: T1, Coagulation factor X; experiment: Tested for inhibitory activity against Coagulation factor Xa
Plasminogen = Plasminogen (Homo sapiens, UniProt P00747); experiment: Tested for inhibitory activity against plasmin
Chain of Plasminogen (P00747 97-580 limits assumed): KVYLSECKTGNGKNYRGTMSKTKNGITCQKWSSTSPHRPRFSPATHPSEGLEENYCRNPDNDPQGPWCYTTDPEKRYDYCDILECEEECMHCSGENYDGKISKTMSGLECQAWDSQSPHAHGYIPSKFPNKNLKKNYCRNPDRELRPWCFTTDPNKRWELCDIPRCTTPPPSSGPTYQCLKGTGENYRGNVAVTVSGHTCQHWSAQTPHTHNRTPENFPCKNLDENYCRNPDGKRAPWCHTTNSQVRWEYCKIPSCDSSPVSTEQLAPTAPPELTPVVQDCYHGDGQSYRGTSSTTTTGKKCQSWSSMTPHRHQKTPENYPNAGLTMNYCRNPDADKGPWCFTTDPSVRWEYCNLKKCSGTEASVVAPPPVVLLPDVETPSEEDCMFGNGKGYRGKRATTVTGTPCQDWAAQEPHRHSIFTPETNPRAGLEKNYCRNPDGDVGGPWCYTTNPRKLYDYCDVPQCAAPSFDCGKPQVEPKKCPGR
Chain of Plasminogen (P00747 581-810 limits assumed): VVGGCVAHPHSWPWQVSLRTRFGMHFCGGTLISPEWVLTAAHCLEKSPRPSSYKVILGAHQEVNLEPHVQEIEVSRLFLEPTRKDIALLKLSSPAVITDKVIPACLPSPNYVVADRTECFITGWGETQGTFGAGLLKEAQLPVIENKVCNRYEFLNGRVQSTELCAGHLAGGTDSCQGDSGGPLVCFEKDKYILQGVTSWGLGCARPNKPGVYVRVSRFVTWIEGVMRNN

[5] = molecular target: Tissue-type plasminogen activator (Homo sapiens, UniProt P00750); experiment: Tested for inhibitory activity against Tissue plasminogen activator
Chain of Tissue-type plasminogen activator (P00750 whole entry): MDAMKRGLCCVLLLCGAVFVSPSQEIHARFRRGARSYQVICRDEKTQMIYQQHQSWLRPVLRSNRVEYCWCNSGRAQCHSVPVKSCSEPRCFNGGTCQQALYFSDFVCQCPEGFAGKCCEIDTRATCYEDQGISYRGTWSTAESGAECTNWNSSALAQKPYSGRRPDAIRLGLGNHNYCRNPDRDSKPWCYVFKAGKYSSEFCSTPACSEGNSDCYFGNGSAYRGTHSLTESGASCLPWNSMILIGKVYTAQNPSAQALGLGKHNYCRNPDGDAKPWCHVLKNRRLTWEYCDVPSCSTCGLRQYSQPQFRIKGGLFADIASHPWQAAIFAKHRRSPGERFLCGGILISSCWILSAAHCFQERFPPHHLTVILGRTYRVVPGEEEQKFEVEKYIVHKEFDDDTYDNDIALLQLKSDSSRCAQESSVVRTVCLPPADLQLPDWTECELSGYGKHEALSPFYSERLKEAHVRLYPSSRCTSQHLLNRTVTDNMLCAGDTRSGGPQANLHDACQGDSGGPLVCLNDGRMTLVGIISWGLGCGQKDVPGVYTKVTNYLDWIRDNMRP

Serine protease 1 = Serine protease 1 (Homo sapiens, UniProt P07477); experiment: Tested for inhibitory activity against trypsin
Chain of Serine protease 1 (P07477 whole entry): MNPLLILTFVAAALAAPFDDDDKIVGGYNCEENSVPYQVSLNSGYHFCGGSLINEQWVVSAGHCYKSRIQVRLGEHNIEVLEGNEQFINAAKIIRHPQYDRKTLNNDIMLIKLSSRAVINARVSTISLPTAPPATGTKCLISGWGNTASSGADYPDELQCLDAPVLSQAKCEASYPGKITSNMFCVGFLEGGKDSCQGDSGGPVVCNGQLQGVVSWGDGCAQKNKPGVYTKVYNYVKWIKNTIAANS

Prothrombin = Prothrombin (Homo sapiens, UniProt P00734); experiment: Tested for inhibitory activity against thrombin

T1 sequence (P00742 41-179 limits assumed): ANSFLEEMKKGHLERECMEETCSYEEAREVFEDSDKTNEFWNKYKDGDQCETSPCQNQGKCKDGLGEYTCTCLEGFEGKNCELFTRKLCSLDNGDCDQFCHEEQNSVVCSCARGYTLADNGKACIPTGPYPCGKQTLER
T1 sequence (P00742 235-488 limits assumed): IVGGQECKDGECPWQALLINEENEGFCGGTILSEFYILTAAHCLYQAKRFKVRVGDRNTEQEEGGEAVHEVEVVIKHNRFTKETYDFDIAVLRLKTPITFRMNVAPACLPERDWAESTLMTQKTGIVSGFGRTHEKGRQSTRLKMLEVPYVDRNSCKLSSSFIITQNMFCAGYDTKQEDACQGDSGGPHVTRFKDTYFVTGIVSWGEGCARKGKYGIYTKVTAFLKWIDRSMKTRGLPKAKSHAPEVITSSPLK

`Nc1ncnc2cc(CN3CCN(Cc4nc5cc(Cl)ccc5o4)CC3=O)ccc12` showed a Ki (Coagulation factor X [1]) of 1200 nM.

`Nc1ncnc2cc(CN3CCN(Cc4nc5cc(OC(F)(F)F)ccc5[nH]4)CC3=O)ccc12` gave a Ki (Coagulation factor X [1]) of over 1200 nM.

In the case of `Nc1ncnc2cc(CN3CCN(Cc4nc5ccc(Br)cc5[nH]4)CC3=O)ccc12`, the Ki (Coagulation factor X [1]) is reported as 17 nM.

`Nc1ncnc2cc(CN3CCN(Cc4nc5cc(Cl)ccc5[nH]4)CC3)ccc12` showed a Ki (Coagulation factor X [1]) of over 1200 nM.

With `N=C(N)c1cccc(CN2CCN(Cc3nc4cc(Cl)ccc4[nH]3)CC2=O)c1` the inhibition (Coagulation factor X [2]) was 42%.

With `Nc1ncnc2cc(CN3CCN(Cc4cc5ccc(Cl)cc5[nH]4)CC3=O)ccc12` the Ki (Coagulation factor X [1]) was 390 nM.

`Nc1ncnc2cc(CN3CCN(Cc4nc5ccc(Cl)cc5[nH]4)CC3=O)ccc12` showed a Ki [3] of over 18 µM, a Ki (Coagulation factor X [1]) of 10 nM and a Ki (Coagulation factor X [4]) of 42 nM. It also gave a Ki (Plasminogen) of over 7.3 µM, a Ki [5] of over 8.7 µM and a Ki (Serine protease 1) of over 2900 nM. The Ki (Prothrombin) was over 4 µM.

For `Cc1ccc2nc(CN3CCN(Cc4ccc5c(N)ncnc5c4)C(=O)C3)[nH]c2c1`, the Ki (Coagulation factor X [1]) was 120 nM.

With `N=C(N)c1ccc(CN2CCN(Cc3nc4ccc(Cl)cc4[nH]3)CC2=O)cc1` the Ki (Coagulation factor X [1]) was 40 nM.

`Nc1ncnc2cc(CN3CCN(Cc4nc5cc(Cl)c(Cl)cc5[nH]4)CC3=O)ccc12` showed a Ki (Coagulation factor X [1]) of over 1200 nM.

`Nc1ncnc2cc(CN3CCN(Cc4nc5ccc(Cl)cc5o4)CC3=O)ccc12` was tested, and the Ki (Coagulation factor X [1]) was over 1200 nM.

Work on `Nc1ncnc2cc(CN3CCN(Cc4cc5cc(Cl)ccc5[nH]4)CC3=O)ccc12` yielded a Ki [3] of over 18 µM, a Ki (Coagulation factor X [1]) of 24 nM and a Ki (Plasminogen) of over 7.3 µM. It also gave a Ki [5] of over 8.7 µM, a Ki (Serine protease 1) of over 2900 nM and a Ki (Prothrombin) of over 4 µM.

`Nc1ncnc2cc(CN3CCN(Cc4nc5ccc(C(F)(F)F)cc5[nH]4)CC3=O)ccc12` showed a Ki (Coagulation factor X [1]) of over 1200 nM.

`Nc1ncnc2cc(CN3CCN(Cc4nc5ccc(Cl)cc5s4)CC3=O)ccc12` gave a Ki (Coagulation factor X [1]) of over 1200 nM.

Work on `Nc1ncnc2cc(CN3CCN(Cc4nc5ccccc5[nH]4)CC3=O)ccc12` yielded a Ki (Coagulation factor X [1]) of 1200 nM.

`N=C(N)c1cccc(CN2CCN(Cc3nc4ccc(Cl)cc4[nH]3)CC2=O)c1` showed a Ki (Coagulation factor X [1]) of over 1200 nM.

Molecule `Nc1ncnc2cc(CN3CCN(S(=O)(=O)c4nc5ccc(Cl)cc5[nH]4)CC3=O)ccc12` has a Ki [3] of over 18 µM, a Ki (Coagulation factor X [1]) of 3 nM and a Ki (Plasminogen) of over 7.3 µM. For the same molecule, the Ki [5] was over 8.7 µM, the Ki (Serine protease 1) was over 2900 nM and the Ki (Prothrombin) was over 4 µM.

`Cn1c(CN2CCN(Cc3ccc4c(N)ncnc4c3)C(=O)C2)nc2ccc(Cl)cc21` showed a Ki (Coagulation factor X [1]) of 290 nM.
